# Patent publication US20150110847A1, “Substrate Mediated Enzymes Prodrug Therapy” (Aarhus Universitet, priority 2012, published 2015)
# Where two headings read alike, the source gives them in different places.
# Columns and labels:
# HepG2 [1] = conditions: previously shown by the applicants; cited from earlier work
# cells cultured on μS PVA = assay: Viability of cells on μS PVA hydrogels with enzyme and/or prodrug (FIG. 17); format: cell-based; conditions: full SMEPT conditions: μS PVA with immobilized enzyme and 1 μM SN-38 glucuronide
# Source text: FIG. 17: Viability of cells on μS hydrogels with enzyme and/or prodrug.
# HepG2 [2] = assay: SMEPT using static cell culture on LbL films, PrestoBlue cell viability (FIG. 21)
# Method: Glass cover-slips. LbL assembly of PMA and PLL with incorporated enzyme was performed on glass cover-slips to evaluate the therapeutic effect of SN-38 under static conditions. Glass cover slips of 9 mm were sonicated in ethanol for 10 minutes, rinsed with ultrapure water, and dried with argon prior to UV sterilization for 20 minutes in a 48 well plate. Solutions of PLL and PMA, were incubated at 37° C. for 10 min prior to film assembly. Alternating layers were composed as (PLL/PMA)2.5-b-glucuronidase-(PMA/PLL)2 or […] for films without enzyme. Each layer was allowed to adsorb for 10 min at 37° C. followed by a washing step in HEPES buffer. The enzyme b-glucuronidase was added at a concentration of 20 μg/mL in HEPES buffer solution.
# (§1) Cell Culture. The hepatocellular carcinoma cell line (HepG2) was used for all cell experiments. HEPG2 were cultured in a 75 cm^2 culture flask (3E6 cells/flask) in 10 mL medium (Minimum Essential Medium Eagle (MEME) supplemented with 10% fetal bovine serum (FCB), 1% penicillin and streptomycin, 1% non-essential amino acids, and 2 mM L-glutamine) and incubated at 37° C. and 5% CO2.
# Static cell culture. The LbL coated glass slides were UV sterilized for 10 minutes prior to cell seeding. HepG2 cells with a starting density of 75.000 cells in 300 μL were seeded per well. The cells were allowed to adhere overnight before adding the (pro)drug SN-38 of 1 μM and incubate for 48 h. 200 μL of fresh media was added together with 20 μL of PrestoBlue cell viability reagent and evaluated on an EnspireMultilabel Plate Reader after 30 minutes of incubation.
# A glucuronide prodrug of a commercial anticancer drug, SN-38, was used. […] Further, hepatocellular carcinoma (HCC) is a condition successfully addressed using tools for localized drug delivery, but solitary drugs are currently accommodated for this mode of delivery.
# Hepatocytes were seeded on the biocatalytic film (PLL/PMA)2.5/β-Glu/(PGA/PMA)2 and allowed to adhere overnight before refreshing the media and adding the (pro)drug at 1 μM.
# HepG2 [3] = test system: HepG2
# Method: as §1
# HepG2 [4] = assay: Cell viability in three sequentially connected perfusion chambers, site-specific delivery (FIG. 25); format: cell-based; conditions: for viability of cells reduced to: 1 μM, 4 h flow, further 48 h culture
# Source text: For the evaluation of drug delivery to subsequent chambers tubings were connected so that the flow of solution would enter the first chamber containing PEMs with enzyme and subsequent flow to chamber 2 and chamber 3 with cell culture on TCPS.
# It is assumed that when the drug is synthesized within the coating immediately underneath the cultured cells, through increased local concentration of the drug, the synthesized therapeutic would exert a higher local effect in adhering cells as compared to the cells growing “downstream”. […] Outlet from chamber 1 was connected to the inlet for chamber 2, and in turn, outlet of chamber 2 was connected to the inlet of chamber 3. Hepatocytes were seeded in all three chambers, but only the cells in chamber 1 were cultured on biocatalytic coatings. Solution of SN-38 glucuronide (1 μM in cell culture media) was administered to the interconnected perfusion chambers at constant shear stress for 4 h. Subsequently, the perfusion chambers were flushed with (pro)drug-free media and the cells were cultured for a further 48 h, prior to the assessment of the cell viability.
# The viability of cells cultured on biocatalytic coatings was reduced to ˜30% verifying a pronounced therapeutic response achieved via SMEPT under flow conditions. Viability of cells in chamber two was reduced to ˜60% thus being much higher than that for cells cultured on biocatalytic coatings. Taking into account dose response of HepG2 cells to SN-38, viability difference between 30% and 60% corresponds to ˜10-fold difference in the concentration of the drug used for the treatment. […] It is therefore highly likely that local therapeutic effect would exceed that at “downstream” location to a greater extent than illustrated in FIG. 25. Our data provide experimental proof of the site-specific drug delivery achieved via SMEPT and thus, illustrate therapeutic advantage associated with this technique.
# b-Galactosidase = test system: b-Galactosidase
# Method: Microstructured PVA hydrogels were assembled using polymer solutions containing b-Galactosidase (1 g/L), stabilized using 0.5 M sodium sulfate and incubated in PBS for 1 h prior analysis. We used a substrate for b-Gal conversion of which affords nitric oxide (NO), a potent and multi-functional signaling and therapeutic molecule. This radical—molecule has a very short half-life and is rapidly converted into nitrite/nitrate, and the latter are conventionally used to quantify the levels of generated nitric oxide. Analysis of nitrite is conducted via a Griess assay, i.e. a colorimetric test establishing a linear correlation between the concentration of nitrite and absorbance at 530 nm; cf. FIG. 31.
# b-Gal-NONOate was administered onto the enzyme-functionalized hydrogels at varied concentrations and incubated for 30 min, upon which the levels of […] were quantified via the Griess assay.
# b-glucuronidase = molecular target: T1, b-glucuronidase (Escherichia coli, UniProt P05804); assay: Prodrug conversion in flow by biocatalytic LbL films in perfusion chambers (FIG. 23); format: biochemical; conditions: constant flow
# T1 construct: purchased
# T1 sequence (P05804 whole entry, the tested form may be a part): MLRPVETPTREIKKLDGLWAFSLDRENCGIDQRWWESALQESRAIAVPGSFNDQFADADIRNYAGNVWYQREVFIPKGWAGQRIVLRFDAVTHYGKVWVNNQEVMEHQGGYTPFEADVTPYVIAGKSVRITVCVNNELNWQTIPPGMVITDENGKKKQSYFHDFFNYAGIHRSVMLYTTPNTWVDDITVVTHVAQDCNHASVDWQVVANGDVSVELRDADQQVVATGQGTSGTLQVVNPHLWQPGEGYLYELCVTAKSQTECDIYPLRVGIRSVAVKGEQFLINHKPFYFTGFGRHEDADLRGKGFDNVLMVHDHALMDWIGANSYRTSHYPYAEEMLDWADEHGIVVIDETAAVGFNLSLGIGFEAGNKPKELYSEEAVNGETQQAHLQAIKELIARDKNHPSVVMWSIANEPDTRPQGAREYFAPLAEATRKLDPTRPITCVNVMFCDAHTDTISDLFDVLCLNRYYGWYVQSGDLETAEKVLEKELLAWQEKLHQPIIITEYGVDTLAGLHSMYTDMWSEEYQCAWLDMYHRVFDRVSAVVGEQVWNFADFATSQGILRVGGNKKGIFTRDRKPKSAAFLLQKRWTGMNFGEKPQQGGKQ
# Method: For evaluation of the enzymatic activity the prodrug fluorescein di-glucuronide, FdG, of 5 μg/mL was added to syringes and connected to the coated perfusion chambers. A syringe pump was used to control the shear stress using 0.15, 0.074, 0.03 dyn/cm^2. An “on demand” conversion of prodrug under flow conditions a syringe with buffer was used as a control. The “on” and “off” was then controlled by the switch of syringes to the given μ-slide chamber.
# For multiple layers of enzyme the PEMs were constructed as (PMA/PLL)4 keeping the total amount of layers constant and adding the enzyme in between each layer of PLL.
# All evaluations were measured out on the PlateReader by collecting aliquots from the outlet tubing during the experiment and transferred to a 96-well pate.
# A unique opportunity associated with multilayered surface coatings relates to the possibility to build films with a desired thickness for which polymer adsorption can be performed to a desired number of layers. Similarly, LbL deposition would allow controlling the amount of enzyme within the thin film through a facile change in the number of protein deposition steps. To show this, polymer coatings were assembled using one or three layers of adsorbed β-Glu keeping the total number of polymer layers constant. […] While a single layer of the enzyme achieved a <[…] concentration of the product, three protein layers suffice for a build-up of product concentration to over 30 nM, all achieved under dynamic, constant flow conditions.
# HepG2 [5] = assay: Cellular internalization of in situ generated fluorescent product, flow cytometry (FIG. 4); format: cell-based; conditions: for levels of cellular fluorescence (cargo internalization): enzyme in μS PVA hydrogel, versus solution based conversion; for levels of cellular fluorescence (cargo internalization) / fluorescence of cultured cells: 2.5 μg/mL, 24 h; for fluorescence of cultured cells: prodrug in absence of the enzyme
# Method: FIG. 4. Utility of SMEPT in generation and cellular internalization of in situ produced product is verified through quantification of fluorescence of hepatic cells cultured on the μS PVA hydrogels. […] Experimental conditions: (A) 1 g/L enzyme in the polymer solution; initial concentration of fluorescein diglucuronide, 2.5 μg/mL; incubation time 24 h; (B) 1 g/L enzyme in the polymer solution; initial concentration of fluorescein diglucuronide 0.25 (top) and 0.025 (bottom) […].
# Towards this goal, hydrogels were prepared using solutions of PVA supplemented with a synthetic polypeptide, poly-L-lysine (PLL). […] Enzyme- and PLL-containing PVA hydrogels were assembled as described above, after which time μS thin films were used as substrates for adhesion and proliferation of a model cell line, HepG2. […] Furthermore, advanced efforts in engineering of liver tissue require co-culturing of mammalian cells (e.g. hepatocytes and Kupffer cells), a challenge which is successfully addressed using μS and micro-patterned substrates. These notions together justify the use of a hepatic cell line and μS PVA hydrogels for the development of SMEPT.
# Initial, internalization of a fluorescent reporter molecule produced via SMEPT and via a solution-based conversion was compared. To achieve this, the cells were seeded on μS PVA hydrogels and were allowed 24 h for attachment, after which time the media was changed to fresh media and, for solution based prodrug conversion, equivalent amount of the enzyme as that contained within μS PVA hydrogels was administered to the cultured cells. At this point, the samples were charged with fluorescein di-glucuronide to a 2.5 μg/mL concentration (3.65 μM). Upon 24 h incubation, fluorescence of the harvested cells was quantified using flow cytometry. […] We note that solution based prodrug conversion is used herein only as a measure to verify protein activity and utility of SMEPT. In the human body, β-glucuronidase has a limited spread and an activity markedly lower as compared to bacterial copy used in this study. The latter notion provides for a low level of “background” prodrug conversion and contributes to specificity of drug delivery achieved with the use of β-glucuronidase and glucuronide prodrugs, as documented for ADEPT and inherited by SMEPT.
# For further characterization of SMEPT, the time course of cellular internalization of the in situ generated fluorescent reporter product was followed at two concentrations of the fluorogenic pro-drug, 0.025 and 0.25 μg/mL (36.5 and 365 nM, respectively). At specified time points, fluorescence of the detached cells was quantified using flow cytometry, FIG. 19B. […] Further to this, at each time point, higher pro-drug concentration affords a higher level of fluorescence registered in the cultured cells, i.e. a greater amount of internalized cargo. Together, these two graphs present time- and dose-dependent internalization of reporter cargo and illustrate the tools of control offered by SMEPT for substrate mediated drug delivery.
smiles,measurement,setting,value
CCc1c2c(nc3ccc(O[C@@H]4O[C@H](C(=O)O)[C@@H](O)[C@H](O)[C@H]4O)cc13)-c1cc3c(c(=O)n1C2)COC(=O)[C@]3(O)CC [SN-38 glucuronide],inherent cytotoxic effects on hepatocytes,HepG2 [1],did not have an inherent cytotoxic effects on hepatocytes
same,cytotoxic effect (viability of cells),cells cultured on μS PVA,cytotoxic effect which is comparable to the active drug SN-38
same,cell viability reduced by,"HepG2 [2]; SMEPT: hepatocytes on β-Glu-containing LbL film, 1 μM, 48 h incubation, compared to control",~80%
same,change in cell viability,"HepG2 [2]; prodrug on (PLL/PMA)4.5 coatings, no enzyme incorporated, 1 μM, 48 h",minor albeit statistically significant decrease in the cell viability
same,reduction in viability of the hepatocytes compared with SMEPT,"HepG2 [2]; solution based EPT: prodrug and enzyme both in solution, enzyme-free LbL films, 1 μM, 48 h",similar
same,decrease in cell viability by,"HepG2 [3]; 1 μM, 4 h flow on biocatalytic film, then static drug-free culture, total 48 h, normalized to cells without (pro)drug",~70%
same,viability of cells reduced to,"HepG2 [4]; chamber 1, cells on biocatalytic coatings",~30%
same,viability of cells reduced to,"HepG2 [4]; chamber two, downstream, no biocatalytic coating",~60%
[O-]/[N+](=N\O[C@@H]1O[C@H](CO)[C@H](O)[C@H](O)[C@H]1O)N1CCCC1 [b-Gal-NONOate],prodrug conversion/drug production of NO,b-Galactosidase; absence of enzyme,no prodrug conversion/drug production of NO is observed
same,administered dose converted,"b-Galactosidase; within 30 min of incubation, b-Galactosidase PVA hydrogels",approximately 50%
CCc1c2c(nc3ccc(O)cc13)-c1cc3c(c(=O)n1C2)COC(=O)[C@]3(O)CC [SN-38],reduction in viability of the hepatocytes compared with SMEPT,HepG2 [2],similar
same,cell culture time required for a well-pronounced therapeutic effect,HepG2 [3],at least 48 h
same,time the presence of the drug was required for a pronounced therapeutic effect,HepG2 [3],≥ 4 h
same,difference in the concentration of the drug corresponding to viability difference between 30% and 60%,HepG2 [4]; from dose response of HepG2 cells to SN-38,~10 fold
O=C1OC2(c3ccc(O[C@@H]4O[C@H](C(=O)O)[C@@H](O)[C@H](O)[C@H]4O)cc3Oc3cc(O[C@@H]4O[C@H](C(=O)O)[C@@H](O)[C@H](O)[C@H]4O)ccc32)c2ccccc21 [fluorescein di-glucuronide],"amount of product synthesized in unit time, 3 versus 1 layers of adsorbed protein",b-glucuronidase; identical prodrug concentration,approximately 3 ×
same,concentration of the product,b-glucuronidase; single layer of the enzyme,< 10 nm
same,concentration of the product,b-glucuronidase; three protein layers,over 30 nM
same,fluorescence of cells over time,"HepG2 [5]; SMEPT, 0.025 and 0.25 μg/mL, earliest time-point 1 h",pronounced increase in the fluorescence of cells
same,levels of cellular fluorescence (cargo internalization),HepG2 [5]; SMEPT,comparable to that produced by a solution based administration
same,levels of cellular fluorescence (cargo internalization),"HepG2 [5]; SMEPT, listed as fluorescein diglucuronide",comparable levels of fluorescence of cultured cells
same,fluorescence of cultured cells,HepG2 [5],"fluorescence identical to pristine, non-treated cells"
same,fluorescence of cultured cells,HepG2 [5]; listed as fluorescein diglucuronide,negligible change in the fluorescence of cultured cells
